Test results published in the supplement of paper PMC10307832.

Legend:
Test in all cases: relative viability (nuclei count vs DMSO), 5 days (fraction); higher = more cells survive
[1] = compound: C=CCc1cccc(/C=N/NC(=O)CN2CCN(Cc3ccccc3)CC2)c1O [PAC-1] + Nc1nc2[nH]cc(CCc3ccc(C(=O)N[C@@H](CCC(=O)O)C(=O)O)cc3)c2c(=O)[nH]1 [Pemetrexed] (partner 0.2 µM)
Method in brief: (§1)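 Five library-drug doses in √10 steps were combined with a fixed anchor-drug dose, or a single drug was given alone, by pin tool to lung cancer cell lines in 1536-well plates the day after seeding. Nuclei were stained and counted after 5 days. Relative viability is the nuclei count in treated wells over that in vehicle wells, taken as the median of duplicate plates.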

[2] = compound: C=CC(=O)Nc1cc(-n2c(=O)ccc3cnc4ccc(-c5ccc(NS(C)(=O)=O)cc5)cc4c32)ccc1C [BMX-IN-1] + CC(C)C[C@H](NC(=O)[C@H](Cc1ccccc1)NC(=O)c1cnccn1)B(O)O [Bortezomib] (partner 0.002 µM)
Method in brief: as §1

[3] = compound: C=CC(=O)N1CCC[C@@H](n2nc(-c3ccc(Oc4ccccc4)cc3)c3c(N)ncnc32)C1 [Ibrutinib] + N=C(N)NC(=N)NCCc1ccccc1 [Phenformin] (partner 250 µM)
Method in brief: as §1

[4] = compound: C=CC(=O)N1CCC[C@@H](n2nc(-c3ccc(Oc4ccccc4)cc3)c3c(N)ncnc32)C1 [Ibrutinib] + COc1cccc2cc(-c3nc([C@H]4CC[C@H](C(=O)O)CC4)n4ncnc(N)c34)[nH]c12 [OSI-027] (partner 0.5 µM)
Method in brief: as §1

Cell Line	relative viability ([1]; first compound 0.02 µM)	relative viability ([1]; first compound 0.06325 µM)	relative viability ([1]; first compound 0.2 µM)	relative viability ([1]; first compound 2 µM)	relative viability ([2]; first compound 0.02 µM)	relative viability ([2]; first compound 0.2 µM)	relative viability ([2]; first compound 0.6325 µM)	relative viability ([2]; first compound 2 µM)	relative viability ([3]; first compound 0.005 µM)	relative viability ([3]; first compound 0.01581 µM)	relative viability ([3]; first compound 0.05 µM)	relative viability ([3]; first compound 0.1581 µM)	relative viability ([3]; first compound 0.5 µM)	relative viability ([4]; first compound 0.005 µM)	relative viability ([4]; first compound 0.01581 µM)	relative viability ([4]; first compound 0.05 µM)	relative viability ([4]; first compound 0.1581 µM)	relative viability ([4]; first compound 0.5 µM)
NCI-H322M	0.591	0.65	0.618	0.603	1.33	1.25	1.2	1.36	0.715	0.675	0.675	0.676	0.569	0.482	0.564	0.513	0.507	0.488
NCI-H441	0.296	0.254	0.28	0.237	0.483	0.517	0.483	0.27	1.01	0.82	0.912	0.988	1.01	0.579	0.664	0.597	0.677	0.707
NCI-H460	0.0683	0.0604	0.0685	0.0667	1.94		1.29	1.03	0.636	0.46	0.463	0.572	0.592	0.731	0.53	0.626	0.566	0.823
NCI-H520	0.723	0.686	0.639	0.58	0.604	0.741	0.863	0.465	0.431	0.606	0.583	0.634	0.356	0.221		0.212	0.258	0.241
NCI-H596	0.435	0.471	0.477	0.54	0.9	1.28	1.31	0.988		0.635	0.704	0.607	0.635		0.777	0.625	0.675	0.526
NCI-H647	0.176	0.207	0.163	0.168	1.15	1.42	1.24	1.01		0.467	0.411	0.592	0.605		0.542	0.671	0.841	0.812
NCI-H650	0.893	0.931	0.968	1.03	1.06	0.762	0.783	0.749	0.457	0.456	0.372	0.492	0.493	0.515	0.481	0.518	0.621	0.539
NCI-H661	0.906	0.877	0.88	0.882	0.86	0.785	0.841	0.685	0.26	0.281	0.252	0.287	0.271	0.702	0.674	0.476	0.698	0.423
NCI-H838	0.22	0.235	0.238	0.206	0.724	0.803	0.95	0.777	0.492	0.491	0.581	0.519	0.537	0.36	0.405	0.387	0.399	0.481
NCI-H1355	1.01	1.06	1.01	1.11	1.26	1.21	1.4	1.22	0.419	0.463	0.485	0.469	0.427	0.29	0.388	0.382	0.347	0.403
NCI-H1437	0.31	0.32	0.305	0.3	0.567	0.472	0.586	0.456	0.352	0.3	0.318	0.317	0.314	0.718	0.846	0.941	0.913	0.878
NCI-H1563	0.787	0.746	0.776	0.949	0.896	0.925	0.891	0.79	0.695	0.668	0.652	0.65	0.657	0.753	0.71	0.694	0.825	0.766
NCI-H1650	0.365	0.387	0.321	0.387	0.178	0.203	0.201	0.186	0.403	0.358	0.353	0.348	0.287	0.554	0.506	0.452	0.59	0.482
NCI-H1651	0.596	0.538	0.525	0.712	0.959	1.06	0.921	0.951	0.34	0.262	0.295	0.308	0.252	0.624	0.663	0.792	0.685	0.768
NCI-H1666	0.643	0.889	0.849	0.799	0.799	0.821	0.823	0.728	0.597	0.59	0.547	0.561	0.571	0.89	0.747	0.737	0.847	0.621
NCI-H1734	0.379	0.427	0.418	0.419	1.05	1.24	0.964	1.17	0.338	0.349	0.419	0.355	0.381	0.448	0.528	0.611	0.665	0.564
NCI-H1755	0.442	0.43	0.448	0.441	0.971	1	1	0.987	0.667	0.624	0.65	0.627	0.665	0.636	0.552	0.79	0.81	0.777
NCI-H1792	0.712	0.894	0.829	0.957	1.25	1.4	0.912	0.956		0.449		0.206	0.171		0.712	0.677		0.808

Cell Line	relative viability ([1]; first compound 0.02 µM)	relative viability ([1]; first compound 0.06325 µM)	relative viability ([1]; first compound 0.2 µM)	relative viability ([1]; first compound 2 µM)	relative viability ([2]; first compound 0.02 µM)	relative viability ([2]; first compound 0.2 µM)	relative viability ([2]; first compound 0.6325 µM)	relative viability ([2]; first compound 2 µM)	relative viability ([3]; first compound 0.005 µM)	relative viability ([3]; first compound 0.01581 µM)	relative viability ([3]; first compound 0.05 µM)	relative viability ([3]; first compound 0.1581 µM)	relative viability ([3]; first compound 0.5 µM)	relative viability ([4]; first compound 0.005 µM)	relative viability ([4]; first compound 0.01581 µM)	relative viability ([4]; first compound 0.05 µM)	relative viability ([4]; first compound 0.1581 µM)	relative viability ([4]; first compound 0.5 µM)
NCI-H1915	0.552	0.471	0.471	0.473	1.31	1.14	1.08	0.994	0.401	0.351	0.367	0.421	0.373	0.557	0.619	0.606	0.482	0.682
NCI-H1975	0.295	0.279	0.306	0.289	0.356	0.338	0.45	0.433	0.452	0.372	0.379	0.416	0.215	0.681	0.624	0.498	0.692	0.357
NCI-H1993	0.636	0.565	0.59	0.589	1.1	1.11		0.959	0.487	0.575	0.534	0.509	0.624	0.574	0.566	0.584	0.552	0.692
NCI-H2009	1.03	0.989	1.1	0.989	1.07	1.19	1.16	1.01	0.558	0.476	0.518	0.476	0.499	0.522	0.631	0.585	0.729	0.804
NCI-H2023	0.211	0.215	0.244	0.229	1.21	1.19	1.27	1.08	0.376	0.392	0.402	0.45	0.357	0.28	0.315	0.349	0.504	0.375
NCI-H2085	0.945	0.885	0.953	1.03	1.14	0.998	1.2	1.16	0.584	0.691	0.616	0.589	0.495	0.502	0.627	0.663	0.556	0.562
NCI-H2087	0.675	0.641	0.663	0.724	1.09	0.959	1.07	0.814	0.494	0.46	0.493		0.427	0.407	0.504	1.08		0.542
NCI-H2126	0.679	0.722	0.755	0.654	1.13	1.17	1.19	1.19	0.485	0.474	0.495	0.551	0.52		0.59	0.537	0.537	0.632
NCI-H2228	0.344	0.361	0.325	0.346	1.66	1.03	1.47	1.12	0.378		0.346	0.263	0.285	0.511		0.478	0.481	0.509
NCI-H2347	0.412	0.435	0.41	0.46	0.985	1.24	1.14	1		0.447	0.332	0.294	0.239		0.383	0.374	0.302	0.57
NCI-H2405	1.08	1.06	1.06	1.02	0.989	1.1	0.999	1.01	0.383	0.384	0.387	0.264	0.369	0.54	0.627	0.63	0.662	0.638
NCI-H3122	0.196	0.199	0.201	0.207	1.04	0.974	1.05	0.994	0.363	0.359	0.414	0.358	0.406	0.895	0.921	0.955	0.671	1.32
PC-3 [JPC-3]	1.09	1.32	1.25	1.09	0.913	0.955	0.944	0.824	0.47	0.452	0.467	0.473	0.391	0.635	0.7	0.619	0.84	0.584
PC-14	0.13	0.139	0.126	0.179	0.934	0.953	1.01	0.954	0.589	0.512	0.429	0.357	0.174	0.71	0.689	0.641	0.907	0.554
RERF-LC-KJ	0.509	0.463	0.483	0.449	1.17	1.21	1.09	1.05	0.394	0.389	0.379	0.407	0.356	0.516	0.441	0.497	0.579	0.489
SK-LU-1	0.944	1.02	0.915	0.99	1.52	1.47	1.22	1.07	0.433	0.542	0.585	0.545	0.485	0.262	0.324	0.301	0.397	0.381
SW 1573	0.831	0.778	0.83	0.855	1.38	1.06	1.08	0.996	0.317	0.345	0.477	0.406	0.423	0.436	0.517	0.653	0.704	0.651
UMC-11	0.78	0.791	0.802	0.79	0.929	0.625	1.19	0.791	0.29	0.312	0.316	0.337	0.362	0.306	0.441	0.495	0.541	0.5
